Data reported in paper PMC6270973, “Two New Phenolic Compounds from the Heartwood of Caesalpinia sappan L” (Molecules, 2013).
Read-outs that look alike come from different tables or passages of the source.

Tests used:
[1] = test system: nitric oxide production in LPS-activated BV-2 microglia; experiment: Inhibition of NO production in LPS-stimulated BV-2 microglia; format: cell-based; conditions: for inhibitory activity against nitric oxide production (in words): IC50 values lower than those of quercetin, the positive control
Protocol: Two new compounds and six known compounds caesalpin J (3), 1-hydroxy-7-methylxanthone (4), 1,5-dihydroxyxanthone (5), 1,7-dihydroxyxanthone (6), butein (7), and sappanone A (8) were evaluated for their inhibitory activities against nitric oxide production in LPS-activated BV-2 microglia according to a previously described method.
Cytotoxicity was determined with the MTT assay.

BV-2 microglia [2] = test system: BV-2 microglia
Protocol: (§1) Each compound was dissolved in DMSO and further diluted in the medium to produce different concentrations with a maximum concentration of 50 μM. The absorbance was measured at 570 nm with a Multilabel Plate Reader (Sunrise TECAN, Männedorf, Switzerland). Cytotoxicity was determined with the MTT assay. Quercetin (Sigma-Aldrich, Foster City, CA, USA) was used as the positive control.

[3] = Cytotoxicity (cell viability) by MTT assay; conditions: mouse, BV-2 microglia cells, Viability (at 50 µM, %), compound at 50 µM
Protocol: as §1

BV-2 microglia [4] = experiment: Cytotoxicity (cell viability) by MTT assay; conditions: compound at 50 µM, 50 µM
Protocol: as §1

[5] = LPS-activated BV-2 microglia, maximum concentration tested 50 μM, read-out: IC50 (µM), inhibition of NO production
[6] = Mus musculus, BV-2, LPS-activated BV-2 microglia, maximum concentration tested 50 μM, read-out: IC50 (µM), inhibition of NO production

| Compound | IC50 [1, 6] [µM] | inhibitory activity against nitric oxide production (in words) ([1]; LPS-activated BV-2 microglia) | viability at 50 µM [3] [%] | further results |
| --- | --- | --- | --- | --- |
| 1-hydroxy-7-methylxanthone [Compound 4] | – | obvious inhibitory activity | – | IC50 [1, 5]: 14.2 µM; Viability (at 50 µM, %) (BV-2 microglia [2]): 98.94% |
| CO[C@H]1[C@]2(O)COC3=CC(=O)C=C[C@@]31c1cc(O)c(O)cc1C2 [Compound 1, epicaesalpin J] | 52.6 | – | 96.5 | – |
| O=C1C=CC23CC(O)(COC2=C1)Cc1cc(O)c(O)cc13 (stereo not drawn) [Compound 2, 7,10,11-trihydroxydracaenone] | 56.7 | – | 99.3 | – |
| CO[C@H]1[C@]2(O)COC3=CC(=O)C=C[C@@]31c1cc(O)c(O)cc1C2 [Compound 3, caesalpin J] | – | – | – | IC50 [1, 5]: 45.9 µM; Viability (at 50 µM, %) (BV-2 microglia [4]): 96.13% |
| O=c1c2cc(O)ccc2oc2cccc(O)c12 [Compound 6, 1,7-dihydroxyxanthone] | – | obvious inhibitory activity | 102 | IC50 ([1]; Mus musculus, BV-2, read-out: IC50 (µM), inhibition of NO production): 21.5 µM |

The next lines start with results.

| IC50 [1, 6] [µM] | Compound | inhibitory activity against nitric oxide production (in words) ([1]; LPS-activated BV-2 microglia) | viability at 50 µM [3] [%] | further results |
| --- | --- | --- | --- | --- |
| 28.7 | O=c1c2cccc(O)c2oc2cccc(O)c12 [Compound 5, 1,5-dihydroxyxanthone] | – | 101 | – |
| 15.5 | O=C(/C=C/c1ccc(O)c(O)c1)c1ccc(O)cc1O [Compound 7, butein] | obvious inhibitory activity | 94 | – |
| 8.26 | O=C1/C(=C/c2ccc(O)c(O)c2)COc2cc(O)ccc21 [Compound 8, sappanone A] | obvious inhibitory activity | 99.3 | – |
| 23.4 | O=c1c(O)c(-c2ccc(O)c(O)c2)oc2cc(O)cc(O)c12 [quercetin, reference compound] | – | – | – |
